Experimental data taken from patent EP1497263B1, “ACYL-3-CARBOXYPHENYLUREA DERIVATIVES, METHOD FOR PRODUCTION AND USE THEREOF” (Sanofi-Aventis Deutschland GmbH, priority 2002, dated 2003).

Tested on: Humane Glykogenphosphorylase a
Assay: Glycogen phosphorylase a activity test (reverse direction, release of inorganic phosphate)
Format: biochemical, human
Settings: 10 µM test substance; 40 min at room temperature; duplicate determinations
Source text: Glykogenphosphorylase a Aktivitätstest
Der Effekt von Verbindungen auf die Aktivität der aktiven Form der Glykogenphosphorylase (GPa) wurde in der umgekehrten Richtung, durch Verfolgen der Glykogensynthese aus Glukose-1-Phosphat an Hand der Bestimmung der Freisetzung von anorganischem Phosphat, gemessen. Alle Reaktionen wurden als Doppelbestimmungen in Mikrotiterplatten mit 96-Vertiefungen (Half Area Plates, Costar Nr. 3696) durchgeführt, wobei die Änderung der Absorption auf Grund der Bildung des Reaktionsprodukts bei der weiter unten spezifizierten Wellenlänge in einem Multiskan Ascent Elisa Reader (Lab Systems, Finnland) gemessen wurde. Um die GPa Enzymaktivität in der umgekehrten Richtung zu messen, wurde die Umwandlung von Glukose-1-Phosphat in Glykogen und anorganisches Phosphat nach der allgemeinen Methode von Engers et al. (Engers HD, Shechosky S, Madsen NB, Can J Biochem 1970 Jul;48(7):746-754) mit folgenden Modifikationen gemessen: Humane Glykogenphosphorylase a (zum Beispiel mit 0,76 mg Protein / ml (Aventis Pharma Deutschland GmbH), gelöst in Pufferlösung E (25 mM β-Glyzerophosphat, pH 7,0, 1 mM EDTA und 1 mM Dithiotreitol) wurde mit Puffer T (50 mM Hepes, pH 7,0, 100 mM KCI, 2,5 mM. EDTA, 2,5 mM MgCl2·6H2O) und Zusatz von 5 mg/ml Glykogen auf eine Konzentration von 10 µg Protein/ml verdünnt. […]

Row | % Inhibition bei 10 µM | SMILES
1 | 3% | CCOC(=O)c1ccc(NC(=O)NC(=O)c2c(F)cccc2F)cc1 [Vergleichsbeispiel A]
2 | 46% | Cc1ccccc1C(=O)NC(=O)Nc1cc(C(=O)O)ccc1Cl [compound 5]
